Values joined by “and” are separate entries in the source; they are usually repeats but may differ in a detail not shown here. Equal values may be shown once.
System: NCI-H226 complex tumor spheroids, viability
Experiment: Anticancer human tumor NCI-H226 cell line growth inhibition;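 note: spheroids exposed to compound for 7 days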;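 for viability, T/C: 100% = DMSO vehicle control viability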
Conditions: for viability, T/C: stronger effect = lower value
Outline: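 Complex spheroids of malignant cells with endothelial cells and mesenchymal stem cells; agents alone or combined, from near clinical Cmax (or 10 microM if unknown) down in half-log steps, 0.25% DMSO final.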

[1] = curve of first compound, second compound 1 µM
[2] = curve of first compound, second compound 3.16 µM
[3] = curve of first compound, second compound 10 µM
[4] = curve of first compound, second compound 31.6 µM
[5] = curve of first compound, second compound 100 µM
[6] = second compound 1 µM, first compound 0.0316 µM
[7] = second compound 1 µM, first compound 0.1 µM
[8] = second compound 1 µM, first compound 0.316 µM
[9] = second compound 1 µM, first compound 1 µM
[10] = second compound 1 µM, first compound 3.16 µM
[11] = second compound 1 µM, first compound 10 µM
[12] = second compound 3.16 µM, first compound 0.0316 µM
[13] = second compound 3.16 µM, first compound 0.1 µM
[14] = second compound 3.16 µM, first compound 0.316 µM
[15] = second compound 3.16 µM, first compound 1 µM
[16] = second compound 3.16 µM, first compound 3.16 µM
[17] = second compound 3.16 µM, first compound 10 µM
[18] = second compound 10 µM, first compound 0.0316 µM
[19] = second compound 10 µM, first compound 0.1 µM
[20] = second compound 10 µM, first compound 0.316 µM
[21] = second compound 10 µM, first compound 1 µM
[22] = second compound 10 µM, first compound 3.16 µM
[23] = second compound 10 µM, first compound 10 µM
[24] = second compound 31.6 µM, first compound 0.0316 µM
[25] = second compound 31.6 µM, first compound 0.1 µM
[26] = second compound 31.6 µM, first compound 0.316 µM
[27] = second compound 31.6 µM, first compound 1 µM
[28] = second compound 31.6 µM, first compound 3.16 µM
[29] = second compound 31.6 µM, first compound 10 µM
[30] = second compound 100 µM, first compound 0.0316 µM
[31] = second compound 100 µM, first compound 0.1 µM
[32] = second compound 100 µM, first compound 0.316 µM
[33] = second compound 100 µM, first compound 1 µM
[34] = second compound 100 µM, first compound 3.16 µM
[35] = second compound 100 µM, first compound 10 µM

O=C(c1cc(Cc2n[nH]c(=O)c3ccccc23)ccc1F)N1CCN(C(=O)C2CC2)CC1 + CC[C@@]1(O)C(=O)OCc2c1cc1n(c2=O)Cc2cc3c(CN(C)C)c(O)ccc3nc2-1
IC50 (curve of first compound, second compound 0.003 µM): > 30 µM | IC50 (curve of first compound, second compound 0.00949 µM): > 30 µM | IC50 (curve of first compound, second compound 0.03 µM): > 30 µM | IC50 (curve of first compound, second compound 0.0949 µM): > 30 µM | IC50 (curve of first compound, second compound 0.3 µM): > 30 µM | viability, T/C (second compound 0.003 µM, first compound 0.0949 µM): 103% | viability, T/C (second compound 0.003 µM, first compound 0.3 µM): 95.8% | viability, T/C (second compound 0.003 µM, first compound 0.949 µM): 100% | viability, T/C (second compound 0.003 µM, first compound 3 µM): 106% | viability, T/C (second compound 0.003 µM, first compound 9.49 µM): 97.9% | viability, T/C (second compound 0.003 µM, first compound 30 µM): 100% | viability, T/C (second compound 0.00949 µM, first compound 0.0949 µM): 94.7% | viability, T/C (second compound 0.00949 µM, first compound 0.3 µM): 91.2% | viability, T/C (second compound 0.00949 µM, first compound 0.949 µM): 95.9% | viability, T/C (second compound 0.00949 µM, first compound 3 µM): 91% | viability, T/C (second compound 0.00949 µM, first compound 9.49 µM): 85.9% | viability, T/C (second compound 0.00949 µM, first compound 30 µM): 81.1% | viability, T/C (second compound 0.03 µM, first compound 0.0949 µM): 88.9% | viability, T/C (second compound 0.03 µM, first compound 0.3 µM): 90.4% | viability, T/C (second compound 0.03 µM, first compound 0.949 µM): 90.1% | viability, T/C (second compound 0.03 µM, first compound 3 µM): 91.2% | viability, T/C (second compound 0.03 µM, first compound 9.49 µM): 96.5% | viability, T/C (second compound 0.03 µM, first compound 30 µM): 89.9% | viability, T/C (second compound 0.0949 µM, first compound 0.0949 µM): 78.4% | viability, T/C (second compound 0.0949 µM, first compound 0.3 µM): 74.4% | viability, T/C (second compound 0.0949 µM, first compound 0.949 µM): 80.2% | viability, T/C (second compound 0.0949 µM, first compound 3 µM): 79.8% | viability, T/C (second compound 0.0949 µM, first compound 9.49 µM): 74.9% | viability, T/C (second compound 0.0949 µM, first compound 30 µM): 78.8% | viability, T/C (second compound 0.3 µM, first compound 0.0949 µM): 68.9% | viability, T/C (second compound 0.3 µM, first compound 0.3 µM): 68.7% | viability, T/C (second compound 0.3 µM, first compound 0.949 µM): 72.7% | viability, T/C (second compound 0.3 µM, first compound 3 µM): 66.8% | viability, T/C (second compound 0.3 µM, first compound 9.49 µM): 70.6% | viability, T/C (second compound 0.3 µM, first compound 30 µM): 60.7%

COc1ccc([C@@H](O)c2cc(-c3ncnc4cc(N5CCOCC5)ccc34)c(F)cc2Cl)nn1 + Cn1nnc2c(C(N)=O)ncn2c1=O
IC50 [1]: 4.71 µM | IC50 [2]: 2.97 µM | IC50 [3]: 3.43 µM | IC50 [4]: 3.69 µM | IC50 [5]: 4.53 µM | viability, T/C [6]: 94.3% | viability, T/C [7]: 100% | viability, T/C [8]: 89% | viability, T/C [9]: 66.8% | viability, T/C [10]: 60.8% | viability, T/C [11]: 37.5% | viability, T/C [12]: 95.2% | viability, T/C [13]: 101% | viability, T/C [14]: 92.2% | viability, T/C [15]: 67.9% | viability, T/C [16]: 52.1% | viability, T/C [17]: 38.1% | viability, T/C [18]: 86.9% | viability, T/C [19]: 89.4% | viability, T/C [20]: 90.4% | viability, T/C [21]: 73.8% | viability, T/C [22]: 52.1% | viability, T/C [23]: 34.4% | viability, T/C [24]: 98.5% | viability, T/C [25]: 91.8% | viability, T/C [26]: 91% | viability, T/C [27]: 67.5% | viability, T/C [28]: 54.2% | viability, T/C [29]: 36.7% | viability, T/C [30]: 111% | viability, T/C [31]: 107% | viability, T/C [32]: 95.8% | viability, T/C [33]: 75.9% | viability, T/C [34]: 56.1% | viability, T/C [35]: 38.1%

[2H]c1nc(C)nc([2H])c1-c1cc(NC[C@@H](C)c2cccc3c(C(=O)NC)ccnc23)ncn1
viability, T/C (compound 0.0316 µM): 93.8% and 95.7% and 112% | viability, T/C (compound 0.1 µM): 101% and 95.3% and 97.7% | viability, T/C (compound 0.316 µM): 103% and 106% and 88.5% | viability, T/C (compound 1 µM): 107% and 106% and 93.5% | viability, T/C (compound 3.16 µM): 101% and 99.3% and 88.1% | viability, T/C (compound 10 µM): 111% and 114% and 106% | IC50 (curve of compound): > 10 µM

COc1cc(C)[nH]c(=O)c1CN1CCc2c(Cl)cc(C(OC)C3COC3)c(Cl)c2C1=O (configuration not stated) + Cn1nnc2c(C(N)=O)ncn2c1=O
IC50 [1]: > 10 µM | IC50 [2]: > 10 µM | IC50 [3]: > 10 µM | IC50 [4]: > 10 µM | IC50 [5]: > 10 µM | viability, T/C [6]: 133% | viability, T/C [7]: 131% | viability, T/C [8]: 130% | viability, T/C [9]: 133% | viability, T/C [10]: 129% | viability, T/C [11]: 132% | viability, T/C [12]: 117% | viability, T/C [13]: 138% | viability, T/C [14]: 124% | viability, T/C [15]: 121% | viability, T/C [16]: 136% | viability, T/C [17]: 108% | viability, T/C [18]: 132% | viability, T/C [19]: 128% | viability, T/C [20]: 125% | viability, T/C [21]: 136% | viability, T/C [22]: 128% | viability, T/C [23]: 127% | viability, T/C [24]: 124% | viability, T/C [25]: 144% | viability, T/C [26]: 132% | viability, T/C [27]: 125% | viability, T/C [28]: 135% | viability, T/C [29]: 145% | viability, T/C [30]: 118% | viability, T/C [31]: 132% | viability, T/C [32]: 136% | viability, T/C [33]: 146% | viability, T/C [34]: 137% | viability, T/C [35]: 150%

Source: PubChem BioAssay AID1845210 (Molecular Pharmacology Branch, DTP, NCI, 2023)
